Data taken from patent publication US20170190744A1 (Vicuron Pharmaceuticals, Inc., priority 2015, published 2017).
Converted amounts (≈) assume the structure as drawn. “And” between values parts separate entries of the source, which are not always exact repeats. Equal entries are not always repeated. Where two headings read alike, the source gives them in different places. Each block holds one compound with its values, some of them ahead of it.

Tests used:
gram positive bacteria = assay: MIC by broth microdilution (NCCLS), with or without 30% bovine serum (Example 19); type: cell-based
Description: (§1) The compounds were prepared according to the examples above and the methods described in U.S. Patent Application Publication No. 2004/0142883. Individual dalbavancin compounds were purified by HPLC. […] Before dissolution, each sample was analyzed by HPLC and quantified. […] Louis, Mo.), Gentamycin (GE) (Sigma Chemical Co., St. Louis, Mo.), Penicillin G (Pen.G) (Sigma Chemical Co., St. Louis, Mo.), and Amphotericin B (Amph.B) (Sigma Chemical Co., St. Louis, Mo.). The microorganisms used were reference strains obtained from the American Type Culture Collection (ATCC) (Rockville, Md.), SmithKline and French Laboratories (SKF), and the Upjohn Company (UC) (Kalamazoo, Mich.).

gram-negative bacteria [1] = assay: as above; type: cell-based
Description: as §1

[2] = system: Candida albicans SKF 2270; assay: as above; type: cell-based; settings: SKF2270
Description: MICs were determined by the broth microdilution methodology following the standard NCCLS procedure (NCCLS Document M7-A6, Vol. 23, No. 2, “Methods for dilution antimicrobial susceptibility tests for bacteria that grow aerobically.” Approved Guideline. January 2003, which can be herein incorporated by reference in its entirety), with or without 30% adult bovine serum (BS) (PAA Laboratories GmBH, Haidmannweg Pasching Austria), using bacterial innocula at approximately 5×10^5 CFU/ml. The media employed included cation-adjusted Müller Hinton broth (Difco Laboratories, Detroit, Mich.) that was used that was adjusted with CaCl2 and MgCl2 to a final concentration of 20 mg/L and 10 mg/L, respectively. Tests were read following 20-24 hours of incubation at 35° C.

gram-positive bacteria = assay: MIC by broth microdilution (NCCLS), IsoB0 and reference compounds; type: cell-based
Description: Müller Hinton broth (Difco Laboratories, Detroit, Mich., USA) adjusted with CaCl2 and MgCl2 to a final concentrations of 20 mg/L and 10 mg/L respectively.
Adult bovine serum (BS) (batch A05123-159 PAA Laboratories GmBH Haidmannweg Pasching Austria).
The microorganisms used are reference standard strains from the American Type Culture Collection (ATCC, Rockville, USA), Smith Kline and French Laboratories (SKF) and the Upjohn Company (UC, Kalamazoo, Mich., USA).
(§2) MICs were determined by the broth microdilution methodology following the standard NCCLS procedure, with or without 30% bovine serum, using bacterial inocula of approximately 5×10^5 CFU/mL. Tests were read after 20-24 h incubation at 35° C.

[3] = In vivo biological activity of IsoB0
gram-negative bacteria [4] = assay: MIC by broth microdilution (NCCLS), IsoB0 and reference compounds; type: cell-based
Description: as §2

Candida albicans SKF2270 = assay: as above; type: cell-based
S. aureus = assay: MIC of study organisms (NCCLS microdilution); type: cell-based; settings: Staphylococcus aureus
Description: (§3) MICs were determined in MHB by standard NCCLS microdilution techniques. […] All MICs were performed at least in duplicate.

[5] = set-up: species or system Sprague-Dawley rats; settings: rat, in vivo, iv, 20 mg/kg
Description: Mass balance studies were conducted to determine the excretion pattern of dalbavancin following a single intravenous (IV) infusion of dalbavancin in male rats. […] Water and methanol cage washes were also collected.

[6] = molecular target: N,N′-diacetyl-Lys-D-Ala-D-Ala; assay: ITC, 37 °C, [HSA] 0 µM
human serum proteins = assay: cell-based or functional assay
[7] = molecular target: N,N′-diacetyl-Lys-D-Ala-D-Ala; assay: ITC, 25 °C, free dalbavancin
[8] = molecular target: N,N′-diacetyl-Lys-D-Ala-D-Ala; assay: ITC, 25 °C, apparent, 104 µM HSA present
[9] = molecular target: N,N′-diacetyl-Lys-D-Ala-D-Ala; assay: ITC, 25 °C, apparent, 288 µM HSA present
[10] = molecular target: N,N′-diacetyl-Lys-D-Ala-D-Ala; assay: ITC, 25 °C, apparent, 430 µM HSA present
[11] = molecular target: N,N′-diacetyl-Lys-D-Ala-D-Ala; assay: ITC, 25 °C, apparent, 601 µM HSA present
[12] = molecular target: N,N′-diacetyl-Lys-D-Ala-D-Ala; assay: ITC, 37 °C, apparent, 482 µM HSA present
S. pneumoniae = assay: MIC of study organisms (NCCLS microdilution); type: cell-based; settings: S. pneumoniae strain 10813
Description: as §3

[13] = molecular target: N,N′-diacetyl-Lys-D-Ala-D-Ala; assay: ITC, 10 °C, [HSA] 0 µM
[14] = molecular target: N,N′-diacetyl-Lys-D-Ala-D-Ala; assay: ITC, 25 °C, [HSA] 0 µM
[15] = molecular target: N,N′-diacetyl-Lys-D-Ala-D-Ala; assay: ITC, 25 °C, 513 µM HSA present
[16] = E. faecalis ATCC29212 ref. strain
[17] = Enterococcus faecalis, ATCC7080
[18] = S. aureus ATCC29213 ref. strain
[19] = Staphylococcus aureus Smith ATCC19636
[20] = Pseudomonas aeruginosas ATCC 10145

MIC (gram positive bacteria; Bacillus subtilis ATCC6633): ≦0.06 mg/L
MIC (gram positive bacteria; [16]): 0.125 µg/mL (≈ 0.0688 µM)
MIC (gram positive bacteria; [17]): 0.125 µg/mL (≈ 0.0688 µM)
MIC (gram positive bacteria; [18]): 0.125 µg/mL (≈ 0.0688 µM)
MIC (gram positive bacteria; S. aureus Smith + 30% BS): 2 µg/mL
MIC (gram positive bacteria; S. epidermidis ATCC12228): ≦0.06 mg/L
MIC (gram positive bacteria; S. pneumoniae Felton UC41): ≦0.06 mg/L
MIC (gram positive bacteria; [19]): 0.25 µg/mL (≈ 0.138 µM)
MIC (gram positive bacteria; Streptococcus pyrogenes SKF 13400): ≦0.06 mg/L
MIC (gram-negative bacteria [1]; E. coli ATCC25922 ref. strain): >64 µg/mL
MIC (gram-negative bacteria [1]; Escherichia coli SKF 12140): >64 µg/mL
MIC (gram-negative bacteria [1]; Proteus vulgaris, ATCC881): >64 µg/mL
MIC (gram-negative bacteria [1]; [20]): >64 µg/mL
MIC ([2]; Candida albicans): >64 µg/mL
Compound: CNC1C(=O)NC2Cc3ccc(c(Cl)c3)Oc3cc4cc(c3OC3OC(C(=O)O)C(O)C(O)C3NC(=O)CCCCCCCCC(C)C)Oc3ccc(cc3Cl)C(O)C3NC(=O)C(NC(=O)C4NC(=O)C(NC2=O)c2cc(O)cc(c2)Oc2cc1ccc2O)c1ccc(O)c(c1)-c1c(OC2OC(CO)C(O)C(O)C2O)cc(O)cc1C(C(=O)NCCCN(C)C)NC3=O [Composition B0, ristomycin A aglycone, 5,31-dichloro-38-de(methoxycarbonyl)-7-demethyl-19-deoxy-56-O-(2-deoxy-2-((10-methyl-1-oxoundecyl)amino)-beta-D-glucopyranuronosyl)-38-(((3-(dimethylamino)propyl)amino)-carbonyl)-42-O-alpha-D-mannopyranosyl-N^15-methyl-]

MIC (gram positive bacteria; ATCC6633, Bacillus subtilis ATCC 6633, read-out: MIC): ≤ 0.03 µg/mL
MIC (gram positive bacteria; ATCC7080, Enterococcus faecalis ATCC 7080, read-out: MIC): 0.06 µg/mL (≈ 0.0328 µM)
MIC (gram positive bacteria; ATCC19636, Staphylococcus aureus Smith ATCC 19636, read-out: MIC): 0.125 µg/mL (≈ 0.0683 µM)
MIC (gram positive bacteria; Enterococcus faecalis, E. faecalis ATCC29212 ref. strain, read-out: MIC): 0.125 µg/mL (≈ 0.0683 µM)
MIC (gram positive bacteria; Staphylococcus aureus, ATCC29213, S. aureus ATCC 29213 ref. strain, read-out: MIC): 0.125 µg/mL (≈ 0.0683 µM)
MIC (gram positive bacteria; Staphylococcus aureus, S. aureus Smith + 30% BS, read-out: MIC): 2 µg/mL
MIC (gram positive bacteria; Staphylococcus epidermidis, ATCC12228, S. epidermidis ATCC 12228, read-out: MIC): ≤ 0.03 µg/mL
MIC (gram positive bacteria; Streptococcus pneumoniae, S. pneumoniae Felton UC41, read-out: MIC): ≤ 0.03 µg/mL
MIC (gram positive bacteria; Streptococcus pyrogenes SKF 13400, read-out: MIC): ≤ 0.03 µg/mL
MIC (gram-negative bacteria [1]; ATCC881, Proteus vulgaris ATCC 881, read-out: MIC): 32 µg/mL (≈ 17.5 µM)
MIC (gram-negative bacteria [1]; Escherichia coli SKF 12140, read-out: MIC): 32 µg/mL (≈ 17.5 µM)
MIC (gram-negative bacteria [1]; Escherichia coli, E. coli ATCC25922 ref. strain, read-out: MIC): 32 µg/mL (≈ 17.5 µM)
MIC (gram-negative bacteria [1]; Pseudomonas aeruginosas ATCC 10145, read-out: MIC): 16 µg/mL (≈ 8.74 µM)
MIC ([2]; Candida albicans SKF 2270, read-out: MIC): 32 µg/mL (≈ 17.5 µM)
Compound: CC(C)CCCCCCCCC(=O)N[C@H]1[C@H](Oc2c3cc4cc2Oc2ccc(cc2Cl)[C@@H](O)[C@@H]2NC(=O)[C@H](NC(=O)[C@@H]4NC(=O)[C@H]4NC(=O)[C@@H](Cc5ccc(cc5)O3)NC(=O)[C@H](N(C)C)c3ccc(O)c(c3)Oc3cc(O)c(Cl)c4c3)c3ccc(O)c(c3)-c3c(O[C@H]4O[C@H](CO)[C@@H](O)[C@H](O)[C@@H]4O)cc(O)cc3[C@@H](C(=O)NCCCN(C)C)NC2=O)O[C@H](C(=O)O)[C@@H](O)[C@@H]1O [Composition B2, N^15,N^15-dimethyl dalbavancin B0]

Second part, the compound before the results:

Compound: CNC1C(=O)NC2Cc3ccc(cc3)Oc3cc4cc(c3OC3OC(C(=O)O)C(O)C(O)C3NC(=O)CCCCCCCCC(C)C)Oc3ccc(cc3Cl)C(O)C3NC(=O)C(NC(=O)C4NC(=O)C(NC2=O)c2cc(cc(O)c2Cl)Oc2cc1ccc2O)c1ccc(O)c(c1)-c1c(OC2OC(CO)C(O)C(O)C2O)cc(O)cc1C(C(=O)NCCCN(C)C)NC3=O (stereo not shown) [IsoB0]
MIC (gram-positive bacteria; Bacillus subtilis ATCC6633): ≦0.06 mg/L
MIC (gram-positive bacteria; [16]): 0.25 µg/mL (≈ 0.138 µM)
MIC (gram-positive bacteria; [17]): 0.25 µg/mL (≈ 0.138 µM)
MIC (gram-positive bacteria; [18]): 0.25 µg/mL (≈ 0.138 µM)
MIC (gram-positive bacteria; S. aureus Smith + 30% BS): 16 µg/mL
MIC (gram-positive bacteria; S. epidermidis ATCC12228): 0.125 µg/mL (≈ 0.0688 µM)
MIC (gram-positive bacteria; S. pneumoniae Felton UC41): 0.125 µg/mL (≈ 0.0688 µM)
MIC (gram-positive bacteria; [19]): 0.5 µg/mL (≈ 0.275 µM)
MIC (gram-positive bacteria; Streptococcus pyogenes SKF13400): 0.06 µg/mL (≈ 0.033 µM)
activity against a panel of gram-positive bacteria (gram-positive bacteria; compared with dalbavancin): very similar to dalbavancin
in vivo biological activity [3]: comparable to that of dalbavancin B0
MIC (gram-negative bacteria [4]; E. coli ATCC25922 ref. strain): 64 µg/mL (≈ 35.2 µM)
MIC (gram-negative bacteria [4]; Escherichia coli SKF 12140): 64 µg/mL (≈ 35.2 µM)
MIC (gram-negative bacteria [4]; Proteus vulgaris, ATCC881): >64 µg/mL
MIC (gram-negative bacteria [4]; [20]): >64 µg/mL
MIC (Candida albicans SKF2270): >64 µg/mL

Compound: COc1cccc(OC)c1C(=O)N[C@@H]1C(=O)N2[C@@H]1SC(C)(C)[C@@H]2C(=O)O [Methicillin]
MIC (S. aureus; MRSA, S. aureus strain MRSA): > 8 µg/mL
MIC (S. aureus; S. aureus strain 25923): 0.12 µg/mL
MIC (S. aureus; S. aureus strain 31005): 0.12 µg/mL
MIC (S. aureus; S. aureus strain 33591): > 8 µg/mL
MIC (S. aureus; S. aureus strain 307109): > 8 µg/mL
MIC (S. aureus; S. aureus strain Smith): 0.12 µg/mL

Compound: CN[C@H]1C(=O)N[C@@H]2Cc3ccc(cc3)Oc3cc4cc(c3O[C@@H]3O[C@H](C(=O)O)[C@@H](O)[C@H](O)[C@H]3NC(=O)CCCCCCCCC(C)C)Oc3ccc(cc3Cl)[C@@H](O)[C@@H]3NC(=O)[C@H](NC(=O)[C@@H]4NC(=O)[C@@H](NC2=O)c2cc(cc(O)c2Cl)Oc2cc1ccc2O)c1ccc(O)c(c1)-c1c(O[C@H]2O[C@H](CO)[C@@H](O)[C@H](O)[C@@H]2O)cc(O)cc1[C@@H](C(=O)NCCCN(C)C)NC3=O [^3H-dalbavancin]
fraction of excreted radioactivity eliminated in feces [5]: ⅓
fraction of excreted radioactivity eliminated in urine [5]: ⅔

Compound: Dalbavancin (peptide)
N [6]: 0.82
degree of binding estimated from MIC difference (human serum proteins): 96%
Kd [7]: 3000 nM
N [8]: 1.38
N [9]: 0.9
N [10]: 1.24
N [11]: 0.86
N [12]: 0.179

Compound: Penicillin
MIC (S. pneumoniae): 0.008 µg/mL

Compound: Vancomycin hydrochloride (peptide)
Ka [13]: 690000 M⁻¹
N [13]: 1.1
Ka [14]: 340000 M⁻¹ and 360000 M⁻¹
N [14]: 0.91 and 0.97
Ka [15]: 290000 M⁻¹
N [15]: 1.05
